Experiment [1] deals with TNFα production in LPS-stimulated human monocytes. The experiment can be described thus: Cot Monocyte TNFα Cell Based Assay. Conditions: Homo sapiens, Monocyte, read-out: EC50 TNF. Put shortly: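 TR-FRET read-out of total secreted TNFα, normalized as % control (unstimulated = 0%, LPS-stimulated = 100%). Cells (5,000/well) were exposed to compound 1 h at 37 °C, then to 50 pg/ml LPS for a further 4 h.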

For experiment [2], the target named is T1, human Cot catalytic domain (30-397 amino acids) (Homo sapiens, UniProt P41279).
T1 construct: Purified recombinant human Cot catalytic domain (30-397 amino acids) was purchased from Cama Biosciences; purchased Cama Biosciences (so in the source)
Description: High Throughput Cot Biochemical Assay (KinEASE TR-FRET). To be noted: read-out: IC50 HTRF. Put shortly:
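TR-FRET readout: Eu-labeled phospho-specific antibody binds XL665-tagged STK3 peptide after phosphorylation by Cot (aa 30-397, 5 nM). Conditions: 400 μM ATP, 1 μM peptide, MOPS pH 7.0 buffer with MgOAc, DTT, BSA, NP-40, glycerol; 0.1% DMSO.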

[3] abbreviates: TNFα in LPS-stimulated human monocytes.
Setting [4] is: Cot biochemical HTRF (KinEASE TR-FRET) assay.
Where [5] appears, read: Cot KinEASE TR-FRET (HTRF) biochemical assay, 400 μM ATP.
[6] abbreviates: LPS-stimulated human monocytes, TNFα TR-FRET.
[7] abbreviates: Cot KinEASE TR-FRET, 400 μM ATP.

The structures appear in SMILES notation. Like-named read-outs stand apart in the source and are kept apart here.

T1 sequence (P41279 30-397): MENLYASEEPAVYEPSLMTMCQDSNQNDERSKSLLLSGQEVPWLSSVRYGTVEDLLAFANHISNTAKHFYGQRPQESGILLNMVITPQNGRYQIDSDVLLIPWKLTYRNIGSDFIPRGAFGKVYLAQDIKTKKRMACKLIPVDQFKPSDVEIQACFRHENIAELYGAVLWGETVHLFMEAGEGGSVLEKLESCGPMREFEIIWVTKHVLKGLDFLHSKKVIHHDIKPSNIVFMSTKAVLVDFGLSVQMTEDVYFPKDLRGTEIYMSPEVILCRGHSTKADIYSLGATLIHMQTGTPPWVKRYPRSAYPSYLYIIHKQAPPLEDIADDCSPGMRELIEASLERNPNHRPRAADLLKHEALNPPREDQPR

`CCN1CCC(n2cc([C@@H](Nc3cc(Cl)c4ncc(C#N)c(Nc5ccc(F)c(Cl)c5)c4c3)c3ccc(Cl)cc3)nn2)CC1` [Example 858, (S)-8-chloro-4-((3-chloro-4-fluorophenyl)amino)-6-(((4-chlorophenyl)(1-(1-ethylpiperidin-4-yl)-1H-1,2,3-triazol-4-yl)methyl)amino)quinoline-3-carbonitrile]: the half-maximal effective concentration (EC50) – broadly, the concentration giving half of the maximal effect – in experiment [1] (setting [3]) came to 99 nM. The IC50 – broadly, the concentration at which inhibition is half-maximal – in experiment [2] (setting [4]) was 8 nM.
Regarding `[2H][C@](Nc1cc(Cl)c2ncc(C#N)c(NOC(C)(C)C)c2c1)(c1ccc(F)cc1)c1cn(C2CC2)nn1` [Example 280, (S)-4-(tert-butoxyamino)-8-chloro-6-(((1-cyclopropyl-1H-1,2,3-triazol-4-yl)(4-fluorophenyl)methyl-d)amino)quinoline-3-carbonitrile], the EC50 in experiment [1] (setting [3]) was determined as 1470 nM. Besides, the IC50 in experiment [2] (setting [5]) came out at 228 nM.
For `CC[C@@H](Nc1c(C#N)cnc2c(Cl)cc(N[C@@H](c3ccc(F)cc3)c3c[nH]nn3)c(F)c12)c1ccccc1` [Example 297] the same measures were 4250 nM and more than 10000 nM.
In the case of `CCC(Nc1c(C#N)cnc2c(Cl)cc(N[C@@H](c3ccccc3)c3cn(C4CCN(C(C)(C)C)CC4)nn3)cc12)C1CCOCC1` (stereo partly drawn) [Example 508, 6-(((S)-(1-(1-(tert-butyl)piperidin-4-yl)-1H-1,2,3-triazol-4-yl)(phenyl)methyl)amino)-8-chloro-4-((1-(tetrahydro-2H-pyran-4-yl)propyl)amino)quinoline-3-carbonitrile], the 50% effective concentration (EC50) in experiment [1] (setting [3]) was more than 10000 nM. Moreover, the IC50 in experiment [2] (setting [4]) turned out to be 5350 nM.
In the case of `[2H][C@@](Nc1cc(Cl)c2ncc(C#N)c(Nc3ccc(Cl)c(Cl)c3F)c2c1)(c1cn(C2CC2)nn1)c1ccccc1Cl` [Example 183, (S)-8-chloro-6-(((2-chlorophenyl)(1-cyclopropyl-1H-1,2,3-triazol-4-yl)methyl-d)amino)-4-((3,4-dichloro-2-fluorophenyl)amino)quinoline-3-carbonitrile], in experiment [1] (setting [3]), the EC50 worked out at 1410 nM. In experiment [2] (setting [5]), the 50% inhibitory concentration (IC50) came to 89 nM.
For `[2H][C@](Nc1cc(Cl)c2ncc(C#N)c(Nc3cnc(F)c(F)c3)c2c1)(c1ccc(F)cc1)c1cn([C@@H](C)CF)nn1` [Example 360, 8-chloro-4-((5,6-difluoropyridin-3-yl)amino)-6-(((S)-(4-fluorophenyl)(1-((S)-1-fluoropropan-2-yl)-1H-1,2,3-triazol-4-yl)methyl-d)amino)quinoline-3-carbonitrile] the same measures were 423 nM and 21 nM.
As to `CC(C)(C)C(=O)c1cccc([C@H](Nc2cc(Cl)c3ncc(C#N)c(Nc4ccc(F)c(Cl)c4)c3c2)c2cn(C3CCN(C(C)(C)C)CC3)nn2)c1` [Example 671, (S)-6-(((1-(1-(tert-butyl)piperidin-4-yl)-1H-1,2,3-triazol-4-yl)(3-pivaloylphenyl)methyl)amino)-8-chloro-4-((3-chloro-4-fluorophenyl)amino)quinoline-3-carbonitrile], the EC50 in experiment [1] (setting [3]) came to 682 nM. The IC50 in experiment [2] (setting [4]) turned out to be 10 nM.
On to `[2H][C@](Nc1cc(Cl)c2ncc(C#N)c(Nc3cnc(F)c(F)c3)c2c1)(c1ccccc1)c1c[nH]nn1` [Example 461, (S)-8-chloro-4-((5,6-difluoropyridin-3-yl)amino)-6-((phenyl(1H-1,2,3-triazol-4-yl)methyl-d)amino)quinoline-3-carbonitrile], for which the 50% effective concentration (EC50) in experiment [1] (setting [3]) was determined as 1530 nM. For the same molecule, in experiment [2] (setting [4]), the IC50 is 20 nM.
Take `CC(C)(C)N1CCC(n2cc([C@@H](Nc3cc(Cl)c4ncc(C#N)c(NC56CCC7CC(CC(C7)C5)C6)c4c3)c3ccccc3)nn2)CC1` [Example 636, 6-(((S)-(1-(1-(tert-butyl)piperidin-4-yl)-1H-1,2,3-triazol-4-yl)(phenyl)methyl)amino)-8-chloro-4-(((1R,3r,6S,8S)-tricyclo[4.3.1.13,8]undecan-3-yl)amino)quinoline-3-carbonitrile]: the EC50 in experiment [1] (setting [3]) was determined as 2390 nM. The IC50 in experiment [2] (setting [4]) amounted to 143 nM.
As for `[2H][C@](Nc1cc(C#N)c2ncc(C#N)c(N[C@H](CC)c3ccccc3)c2c1)(c1ccc(F)cc1)c1cn(C)nn1` [Example 208, 6-(((S)-(4-fluorophenyl)(1-methyl-1H-1,2,3-triazol-4-yl)methyl-d)amino)-4-(((R)-1-phenylpropyl)amino) quinoline-3,8-dicarbonitrile], in experiment [1] (setting [3]), the EC50 came out at 83 nM. In addition, in experiment [2] (setting [5]), the IC50 is 3 nM.
Turning to `Cc1c(-c2ncco2)cccc1[C@H](Nc1cc(C#N)c2ncc(C#N)c(NCC(C)(C)C)c2c1)c1cn(C2(C(F)(F)F)CC2)nn1` [Example 1055, (S)-6-(((2-methyl-3-(oxazol-2-yl)phenyl)(1-(1-(trifluoromethyl)cyclopropyl)-1H-1,2,3-triazo1-4-yl)methyl)amino)-4-(neopentylamino)quinoline-3,8-dicarbonitrile], the EC50 in experiment [1] (setting [6]) came to 100 nM. Further, in experiment [2] (setting [7]), the half-maximal inhibitory concentration (IC50) amounted to 3 nM.
Regarding `N#Cc1cnc2c(Cl)cc(N[C@@H](c3ccc(F)cc3)c3cn(C4CC4)nn3)cc2c1NC(CF)c1ccccc1` (stereo partly drawn) [Example 323, 8-chloro-6-(((S)-(1-cyclopropyl-1H-1,2,3-triazol-4-yl)(4-fluorophenyl)methyl)amino)-4-((2-fluoro-1-phenylethyl)amino)quinoline-3-carbonitrile], in experiment [1] (setting [3]), the EC50 is 1600 nM. For the same molecule, in experiment [2] (setting [5]), the IC50 came to 82 nM.
Consider `[2H][C@](Nc1cc(Br)c2ncc(C#N)c(N[C@H](CCC#N)c3ccccc3)c2c1)(c1ccc(F)cc1)c1cn(C2CC2)nn1` [Example 937, 8-bromo-4-(((R)-3-cyano-1-phenylpropyl)amino)-6-(((S)-(1-cyclopropyl-1H-1,2,3-triazol-4-yl)(4-fluorophenyl)methyl-d)amino)quinoline-3-carbonitrile], for which, in experiment [1] (setting [6]), the EC50 turned out to be 35 nM. For the same molecule, in experiment [2] (setting [7]), the IC50 was 3 nM.
On to `[2H][C@](Nc1cc(Cl)c2ncc(C#N)c(NC3(C(F)F)CC3)c2c1)(c1ccc(F)cc1)c1cn(C2CC2)nn1` [Example 967], for which, in experiment [1] (setting [6]), the 50% effective concentration (EC50) is not below 1000 nM. For the same molecule, the IC50 in experiment [2] (setting [7]) was 714 nM.
For `[2H]C([2H])(Nc1c(C#N)cnc2c(Cl)cc(N[C@@]([2H])(c3cccc(C#N)c3)c3cn(C4CC4)nn3)cc12)C(C)(C)C` [Example 239, (S)-8-chloro-6-(((3-cyanophenyl)(1-cyclopropyl-1H-1,2,3-triazol-4-yl)methyl-d)amino)-4-((2,2-dimethylpropyl-1,1-d2)amino)quinoline-3-carbonitrile], the concentration giving a half-maximal response (EC50) in experiment [1] (setting [3]) amounted to 55 nM. The IC50 in experiment [2] (setting [5]) is 2 nM.
Take `COc1ccc(Nc2c(C#N)cnc3c(Cl)cc(N[C@@H](c4ccccc4)c4cn(C5CCN(C(C)(C)C)CC5)nn4)cc23)cn1` [Example 492, (S)-6-(((1-(1-(tert-butyl)piperidin-4-yl)-1H-1,2,3-triazol-4-yl)(phenyl)methyl)amino)-8-chloro-4-((6-methoxypyridin-3-yl)amino)quinoline-3-carbonitrile]: the EC50 in experiment [1] (setting [3]) was 966 nM. Besides, the IC50 in experiment [2] (setting [4]) stood at 65 nM.
With `CC(C)(C)CNc1c(C#N)cnc2c(C#N)cc(N[C@H](c3cn(C4(C(F)(F)F)CC4)nn3)c3cccc(C#N)c3Cl)cc12` [Example 1079, (S)-6-(((2-chloro-3-cyanophenyl)(1-(1-(trifluoromethyl)cyclopropyl)-1H-1,2,3-triazol-4-yl)methyl)amino)-4-(neopentylamino)quinoline-3,8-dicarbonitrile], the 50% effective concentration (EC50) in experiment [1] (setting [6]) came to 220 nM. In addition, in experiment [2] (setting [7]), the IC50 was determined as 19 nM.
On to `[2H][C@](Nc1cc(C2CC2)c2ncc(C#N)c(N[C@H](CC)c3ccccc3)c2c1)(c1ccc(F)cc1)c1cn(C2CC2)nn1` [Example 224, 8-cyclopropyl-6-(((S)-(1-cyclopropyl-1H-1,2,3-triazol-4-yl)(4-fluorophenyl)methyl-d)amino)-4-(((R)-1-phenylpropyl)amino)quinoline-3-carbonitrile], for which the EC50 in experiment [1] (setting [3]) turned out to be 397 nM. Also, the IC50 in experiment [2] (setting [5]) was 28 nM.
Regarding `Cc1nnc(C2(n3cc([C@@H](Nc4cc(C#N)c5ncc(C#N)c(NCC(C)(C)C)c5c4)c4ccccc4Cl)nn3)CC2)o1` [Example 1161, (S)-6-(((2-chlorophenyl)(1-(1-(5-methyl-1,3,4-oxadiazol-2-yl)cyclopropyl)-1H-1,2,3-triazol-4-yl)methyl)amino)-4-(neopentylamino)quinoline-3,8-dicarbonitrile], the EC50 in experiment [1] (setting [6]) came out at 45 nM. In addition, in experiment [2] (setting [7]), the IC50 was found to be 14 nM.
Regarding `N#Cc1cnc2c(Cl)cc(N[C@@H](c3ccccc3)c3cn(C4CCN(C5COC5)CC4)nn3)cc2c1Nc1ccc(Cl)c(Cl)c1F` [Example 625, (S)-8-chloro-4-((3,4-dichloro-2-fluorophenyl)amino)-6-(((1-(1-(oxetan-3-yl)piperidin-4-yl)-1H-1,2,3-triazol-4-yl)(phenyl)methyl)amino) quinoline-3-carbonitrile], the EC50 in experiment [1] (setting [3]) worked out at 1160 nM. Further, the concentration for half-maximal inhibition (IC50) in experiment [2] (setting [4]) came out at 116 nM.
As to `[2H][C@](Nc1cc(-c2cncnc2)c2ncc(C#N)c(N[C@H](CC)c3ccccc3)c2c1)(c1ccc(F)cc1)c1cn(C2CC2)nn1` [Example 81, 6-(((S)-(1-cyclopropyl-1H-1,2,3-triazol-4-yl)(4-fluorophenyl)methyl-d)amino)-4-(((R)-1-phenylpropyl)amino)-8-(pyrimidin-5-yl)quinoline-3-carboitrile], in experiment [1] (setting [3]), the EC50 was determined as 316 nM. In addition, the IC50 in experiment [2] (setting [5]) is 20 nM.
For the molecule `[2H]C(Nc1cc(Cl)c2ncc(C#N)c(NCC(C)(C)C)c2c1)(c1cn(C(F)(F)CO)nn1)c1ccccc1Cl` (centres unmarked) [Compound 26], the EC50 in experiment [1] (setting [3]) is 380 nM. The IC50 in experiment [2] (setting [5]) amounted to 13 nM.

The values above are taken from patent US10316017B2, “COT modulators and methods of use thereof” (Gilead Sciences, Inc., priority 2015, dated 2019).
